ChEMBL document CHEMBL5584238, “Psammaplin A analogues with modified disulfide bond targeting histone deacetylases: Synthesis and biological evaluation” (Eur J Med Chem, 2024)
Activity calls are given as the source filed them. The calls are words filed in the database; no cut-off is given here.

Key:
HCT-116 [1] = test: Antiproliferative activity against human HCT-116 cells incubated for 48 hrs by MTT assay; assay type: functional, cell-based; conditions: HCT-116, 48 h
EBC-1 = test: Antiproliferative activity against human EBC-1 cells incubated for 48 hrs by MTT assay; assay type: functional, cell-based; conditions: EBC-1, 48 h
NCI-H1581 = test: Antiproliferative activity against human NCI-H1581 cells incubated for 48 hrs by MTT assay; assay type: functional, cell-based; conditions: NCI-H1581, 48 h
[2] = molecular target: T1, Class 1 histone deacetylase (Homo sapiens) (UniProt Q13547+O15379+Q92769+Q9BY41); test: Inhibition of class 1 HDACs in human HCT-116 cells assessed as upregulation of acetylated alpha-H3 level at 1 uM incubated for 24 hrs by Western blotting analysis; assay type: cell-based
T1 sequence (O15379 whole entry, looked up): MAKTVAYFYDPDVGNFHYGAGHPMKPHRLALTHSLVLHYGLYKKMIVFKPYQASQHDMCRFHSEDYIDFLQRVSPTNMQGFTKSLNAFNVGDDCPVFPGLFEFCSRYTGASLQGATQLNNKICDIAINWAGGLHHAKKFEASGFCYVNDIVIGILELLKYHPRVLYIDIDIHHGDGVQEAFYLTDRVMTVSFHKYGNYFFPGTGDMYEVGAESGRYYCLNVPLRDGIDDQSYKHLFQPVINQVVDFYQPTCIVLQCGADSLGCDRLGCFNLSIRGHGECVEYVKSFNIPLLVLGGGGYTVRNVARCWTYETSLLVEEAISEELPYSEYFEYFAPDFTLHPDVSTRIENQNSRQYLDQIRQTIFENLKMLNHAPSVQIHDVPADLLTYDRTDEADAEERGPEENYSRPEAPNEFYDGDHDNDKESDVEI
T1 sequence (Q13547 whole entry, looked up): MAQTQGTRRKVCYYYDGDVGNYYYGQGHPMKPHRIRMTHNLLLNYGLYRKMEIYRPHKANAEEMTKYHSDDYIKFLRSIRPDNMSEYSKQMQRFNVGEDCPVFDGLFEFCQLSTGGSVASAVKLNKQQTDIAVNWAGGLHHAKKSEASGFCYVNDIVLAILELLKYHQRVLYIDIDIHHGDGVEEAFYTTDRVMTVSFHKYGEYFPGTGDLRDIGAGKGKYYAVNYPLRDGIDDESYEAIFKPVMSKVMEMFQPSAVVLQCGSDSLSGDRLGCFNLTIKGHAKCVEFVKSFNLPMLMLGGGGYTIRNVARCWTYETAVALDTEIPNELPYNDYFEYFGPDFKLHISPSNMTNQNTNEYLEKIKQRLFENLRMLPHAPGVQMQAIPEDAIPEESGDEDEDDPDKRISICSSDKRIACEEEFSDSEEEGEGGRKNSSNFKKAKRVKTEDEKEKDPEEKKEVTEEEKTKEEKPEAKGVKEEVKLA
T1 sequence (Q92769 whole entry, looked up): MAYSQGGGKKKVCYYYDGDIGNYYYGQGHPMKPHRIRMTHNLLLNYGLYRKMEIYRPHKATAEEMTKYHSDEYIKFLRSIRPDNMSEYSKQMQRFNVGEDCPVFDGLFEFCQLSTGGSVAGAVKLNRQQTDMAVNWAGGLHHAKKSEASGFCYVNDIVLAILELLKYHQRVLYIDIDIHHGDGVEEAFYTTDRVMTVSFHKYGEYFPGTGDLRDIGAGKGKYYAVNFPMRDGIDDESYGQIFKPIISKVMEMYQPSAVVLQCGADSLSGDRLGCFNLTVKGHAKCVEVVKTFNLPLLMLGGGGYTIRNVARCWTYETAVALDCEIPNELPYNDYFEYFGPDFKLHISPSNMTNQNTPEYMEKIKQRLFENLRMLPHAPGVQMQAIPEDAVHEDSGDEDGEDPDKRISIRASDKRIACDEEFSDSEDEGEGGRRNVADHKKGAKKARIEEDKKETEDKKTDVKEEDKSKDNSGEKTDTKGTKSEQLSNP
T1 sequence (Q9BY41 whole entry, looked up): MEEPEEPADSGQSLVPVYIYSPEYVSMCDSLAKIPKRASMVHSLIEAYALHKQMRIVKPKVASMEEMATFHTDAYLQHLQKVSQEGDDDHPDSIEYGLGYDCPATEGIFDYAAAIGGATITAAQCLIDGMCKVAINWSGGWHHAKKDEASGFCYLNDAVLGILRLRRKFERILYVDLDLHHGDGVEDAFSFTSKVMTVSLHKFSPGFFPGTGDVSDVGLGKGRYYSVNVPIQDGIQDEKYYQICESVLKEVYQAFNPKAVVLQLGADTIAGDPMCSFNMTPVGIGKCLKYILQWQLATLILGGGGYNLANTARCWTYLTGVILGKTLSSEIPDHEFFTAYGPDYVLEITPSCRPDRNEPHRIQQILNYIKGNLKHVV

[3] = molecular target: T2, Protein deacetylase HDAC6 (Homo sapiens) (UniProt Q9UBN7); test: Inhibition of HDAC6 in human HCT-116 cells assessed as upregulation of acetylated alpha-tubulin level at 1 uM incubated for 24 hrs by Western blotting analysis; assay type: cell-based
T2 sequence (whole entry): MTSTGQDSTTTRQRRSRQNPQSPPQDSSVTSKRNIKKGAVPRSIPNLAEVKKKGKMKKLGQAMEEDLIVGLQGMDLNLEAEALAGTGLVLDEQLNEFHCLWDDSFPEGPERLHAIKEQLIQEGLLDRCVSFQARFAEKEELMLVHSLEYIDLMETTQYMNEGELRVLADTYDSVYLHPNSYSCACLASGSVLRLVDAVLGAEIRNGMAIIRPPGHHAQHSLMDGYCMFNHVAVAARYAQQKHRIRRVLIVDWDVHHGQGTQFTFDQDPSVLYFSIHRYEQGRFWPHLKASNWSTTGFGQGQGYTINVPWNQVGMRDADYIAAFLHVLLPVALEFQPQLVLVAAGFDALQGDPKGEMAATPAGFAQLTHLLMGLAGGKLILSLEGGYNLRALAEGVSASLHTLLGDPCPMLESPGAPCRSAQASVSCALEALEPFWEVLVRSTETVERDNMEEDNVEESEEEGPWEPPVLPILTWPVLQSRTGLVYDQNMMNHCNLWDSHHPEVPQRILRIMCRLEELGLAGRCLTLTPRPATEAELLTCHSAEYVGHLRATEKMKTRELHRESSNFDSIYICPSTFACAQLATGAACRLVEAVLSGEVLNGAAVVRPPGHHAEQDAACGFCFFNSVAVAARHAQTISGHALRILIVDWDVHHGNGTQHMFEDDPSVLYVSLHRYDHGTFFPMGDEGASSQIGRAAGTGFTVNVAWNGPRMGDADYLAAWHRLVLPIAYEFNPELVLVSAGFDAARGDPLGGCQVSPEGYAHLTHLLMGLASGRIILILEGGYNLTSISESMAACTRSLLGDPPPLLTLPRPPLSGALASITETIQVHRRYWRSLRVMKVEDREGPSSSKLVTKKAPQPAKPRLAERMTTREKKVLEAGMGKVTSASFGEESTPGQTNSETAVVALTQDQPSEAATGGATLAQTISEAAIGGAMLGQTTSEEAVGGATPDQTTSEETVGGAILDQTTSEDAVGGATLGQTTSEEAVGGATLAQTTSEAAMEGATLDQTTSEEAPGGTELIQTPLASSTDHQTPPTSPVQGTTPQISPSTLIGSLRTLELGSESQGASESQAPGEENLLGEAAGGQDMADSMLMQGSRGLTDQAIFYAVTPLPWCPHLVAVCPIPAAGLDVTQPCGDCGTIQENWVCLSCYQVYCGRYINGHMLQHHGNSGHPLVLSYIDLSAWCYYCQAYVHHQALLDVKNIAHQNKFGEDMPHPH

[4] = molecular target: T1, Class 1 histone deacetylase (Homo sapiens); test: Inhibition of class 1 HDACs in human HCT-116 cells assessed as upregulation of acetylated alpha-H3 level incubated for 24 hrs by Western blotting analysis; assay type: cell-based; conditions: dose 0.5-4 µM
[5] = molecular target: T2, Protein deacetylase HDAC6 (Homo sapiens); test: Inhibition of HDAC6 in human HCT-116 cells assessed as upregulation of acetylated alpha-tubulin level incubated for 24 hrs by Western blotting analysis; assay type: cell-based; conditions: dose 0.5-4 µM
Histone deacetylase 1 = Histone deacetylase 1 (Homo sapiens, UniProt Q13547); test: Inhibition of recombinant human HDAC1 using Boc-Lys(Ac)-AMC as substrate preincubated for 1 hr followed by substrate addition and measured after 2 hrs by microplate reader assay
Chain of Histone deacetylase 1 (Q13547 whole entry): as the sequence (Q13547 whole entry, looked up) above

HCT-116 [6] = test: Induction of cell cycle arrest in human HCT-116 cells assessed as accumulation of cells at G1 phase at 0.1 uM after 24 hrs by PI staining based flow cytometry analysis (reference value: 37.9%); assay type: functional
HCT-116 [7] = test: Induction of cell cycle arrest in human HCT-116 cells assessed as accumulation of cells at S phase at 0.1 uM after 24 hrs by PI staining based flow cytometry analysis (reference value: 52.8%); assay type: functional
HCT-116 [8] = test: Induction of cell cycle arrest in human HCT-116 cells assessed as accumulation of cells at G2/M phase at 0.1 uM after 24 hrs by PI staining based flow cytometry analysis (reference value: 9.3%); assay type: functional
HCT-116 [9] = test: Induction of cell cycle arrest in human HCT-116 cells assessed as accumulation of cells at S phase at 0.2 uM after 24 hrs by PI staining based flow cytometry analysis (reference value: 52.8%); assay type: functional
HCT-116 [10] = test: Induction of cell cycle arrest in human HCT-116 cells assessed as accumulation of cells at G1 phase at 0.4 uM after 24 hrs by PI staining based flow cytometry analysis (reference value: 37.9%); assay type: functional
HCT-116 [11] = test: Induction of cell cycle arrest in human HCT-116 cells assessed as accumulation of cells at S phase at 0.4 uM after 24 hrs by PI staining based flow cytometry analysis (reference value: 52.8%); assay type: functional
HCT-116 [12] = test: Induction of cell cycle arrest in human HCT-116 cells assessed as accumulation of cells at G2/M phase at 0.4 uM after 24 hrs by PI staining based flow cytometry analysis (reference value: 9.3%); assay type: functional
HCT-116 [13] = test: Induction of apoptosis in human HCT-116 cells assessed as late apoptotic cells at 0.2 uM incubated for 24 hrs by Annexin V-FITC/PI staining based flow cytometry analysis ( Rvb = 5.32%); assay type: functional
HCT-116 [14] = test: Induction of apoptosis in human HCT-116 cells assessed as necrotic cells at 0.2 uM incubated for 24 hrs by Annexin V-FITC/PI staining based flow cytometry analysis ( Rvb = 0.24%); assay type: functional
HCT-116 [15] = test: Induction of apoptosis in human HCT-116 cells assessed as viable cells at 0.4 uM incubated for 24 hrs by Annexin V-FITC/PI staining based flow cytometry analysis ( Rvb = 92.2%); assay type: functional; conditions: read-out: Activity
HCT-116 [16] = test: Induction of apoptosis in human HCT-116 cells assessed as late apoptotic cells at 0.4 uM incubated for 24 hrs by Annexin V-FITC/PI staining based flow cytometry analysis ( Rvb = 5.32%); assay type: functional
HCT-116 [17] = test: Induction of apoptosis in human HCT-116 cells assessed as necrotic cells at 0.4 uM incubated for 24 hrs by Annexin V-FITC/PI staining based flow cytometry analysis ( Rvb = 0.24%); assay type: functional
HCT-116 [18] = test: Antitumor activity against human HCT-116 cells xenografted with BALB/c nude mouse assessed as tumor growth inhibition at 5 mg/kg, ip administered every 2 days for 26 days; assay type: functional; conditions: HCT-116, 624 h, time 26 day, read-out: TGI

SMILES | IC50 (HCT-116 [1]) [nM] | inhibition [4] | inhibition [5] | IC50 (Histone deacetylase 1) [nM] | Activity (HCT-116 [6]) [%] | Activity (HCT-116 [7]) [%] | Activity (HCT-116 [8]) [%] | Activity (HCT-116 [9]) [%] | Activity (HCT-116 [13]) [%] | Activity (HCT-116 [14]) [%] | viability at 0.4 µM (HCT-116 [15]) [%] | Activity (HCT-116 [16]) [%] | Activity (HCT-116 [17]) [%] | inhibition in vivo at 5 mg/kg (HCT-116 [18]) [%] | also measured
O=C(NCC[Se][Se]CCNC(=O)/C(Cc1ccsc1)=N/O)/C(Cc1ccsc1)=N/O | 210 | Dose-Dependent Effect | Dose-Dependent Effect | 770 | 50.11 | 18.84 | 31.05 | 36.99 | 7.96 | 0.18 | 19.7 | 6.97 | 0.057 | 24 | IC50 (EBC-1): 640 nM; IC50 (NCI-H1581): 260 nM; inhibition [2]: Active; inhibition [3]: Active; Activity (HCT-116 [10]): 7.85%; Activity (HCT-116 [11]): 39.56%; Activity (HCT-116 [12]): 52.59%
O=C(NCC[Se][Se]CCNC(=O)/C(Cc1ccc(O)c(Br)c1)=N/O)/C(Cc1ccc(O)c(Br)c1)=N/O | 240 | Dose-Dependent Effect | Dose-Dependent Effect | 170 | 32.08 | 20 | 47.92 | 10.45 | 12.9 | 0.32 | 28 | 4.94 | 0.082 | 74.6 | 
